This assay has as its system "epileptic-like" discharges from pyramidal cells. Description: penicillin-induced "epileptic" hippocampus section preparation, electrophysiological model in vitro. Type of assay: cell-based. The conditions noted are these: read-out: concentration at which "epileptic-like" discharges from pyramidal cells are inhibited.

On to `NCC(CC(=O)O)c1ccc(Cl)cc1` (stereo not shown) [baclofen], for which the minimal effective concentration came out at 6 µM.

Values taken from patent publication US5424441A, “N-aralkyl-and N-heteroaralkyl-aminoalkanephosphinic acids” (Ciba-Geigy Corporation, priority 1994, dated 1995).
